Data as given in patent US20090035306A1 (KALYPSYS, INC., priority 2006, published 2009).

What follows are molecules tested against T1, human TGR5 (Homo sapiens, UniProt Q8TDU6) (assay: cAMP production assay in HEK293 cells stably expressing TGR5 (LANCE TR-FRET)). Conditions: 30 minutes stimulation, read-out: cAMP Production in 293-TGR5 Cells EC50.
T1 construct: expressed in transfected cells
T1 sequence (Q8TDU6 1-330): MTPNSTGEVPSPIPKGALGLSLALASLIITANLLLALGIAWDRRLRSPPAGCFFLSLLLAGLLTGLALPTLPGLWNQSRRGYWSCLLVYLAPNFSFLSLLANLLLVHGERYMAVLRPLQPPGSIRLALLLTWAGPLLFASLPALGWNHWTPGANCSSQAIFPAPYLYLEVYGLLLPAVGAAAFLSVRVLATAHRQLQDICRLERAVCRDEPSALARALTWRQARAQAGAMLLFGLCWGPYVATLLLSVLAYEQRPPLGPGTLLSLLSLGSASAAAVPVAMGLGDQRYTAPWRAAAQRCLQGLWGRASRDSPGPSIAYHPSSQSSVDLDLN
Format: cell-based
Experimental: HEK293 cells stably expressing TGR5 (HEK293-TGR5) were established by stably transfecting HEK-293 cells with an expression vector (pcDNA 3.1, Invetrogen) inserted with human TGR5 cDNA using Fugene6 (Roche, Indianapolis, Ind.) according to conventional methods. Cells were grown in DMEM (invitrogen, Carlsbad, Calif.) supplemented with 10% FBS, 1% penicillin/streptomycin under geneticin selection. The presence of TGR5 transcripts in these cells was confirmed using branched DNA (bDNA, Genospectra, Inc., Fremont Calif.) following the manufacturer's protocol and using specific probes for human TGR5. cAMP production assay was performed in high throughput 1536 well format using LANCE cAMP detection kit (Perkin Elmer Inc., Boston, Mass.) according to the manufacturer's protocol. Briefly, HEK293-TGR5 cells were harvested using non-enzymatic cell dissociation buffer (Invitrogen, Carlsbad, Calif.) and suspended in DMEM supplemented with 0.1% FBS at a density of 800,000 cells/ml. Alexa antibody was added to the cell suspension, and 4 ul of the mixture was dispensed in white opaque tissue culture treated Greiner 1536 well plates (USA Scientific, Inc., Ocala, Fla.). After an overnight incubation at 37 C in an atmosphere of 10% CO2 and 95% humidity, 1 ul of 5 mM IBMX (Sigma, St. Louis, Mo.) solution in DMEM was dispensed for a final concentration of 1 mM. Cells were then stimulated with test compounds for 30 minutes, after which time 5 ul of detection reagent was added and incubated for 1-7 hrs at room temperature. TR-FRET signal was detected using the Viewlux (Perkin Elmer Inc., Boston Mass.). EC50 values were determined using Graph Pad Prizm analysis (GraphPad Software, Inc). The EC50 values for a wide range of bile acids generated from this assay were in agreement with the values published in the scientific literature. […] The symbol (+) denotes an EC50 value of ≦10 μM while the symbol (−) denotes an EC50 value of >10 μM (see Table 1).

Q: Which EC50 does the source give for `O=c1c2ccccc2nc(-c2ccc(F)cc2)n1NCc1ccc(Cl)cc1` [Example 79, 3-(4-chlorobenzylamino)-2-(4-fluorophenyl)quinazolin-4(3H)-one] here?
A: ≤ 10 µM

Q: `COc1ccc2c(=O)n(NCc3ccc(Br)cc3)c(-c3ccc(F)cc3)nc2c1` [Example 33, 3-(4-bromobenzylamino)-2-(4-fluorophenyl)-7-methoxyquinazolin-4(3H)-one] was tested. Which EC50 did it give?
A: > 10 µM

Q: With `CN(Cc1ccc(Br)cc1)n1c(-c2ccc(F)cc2)nc2ccccc2c1=O` [Example 90, 3-((4-bromobenzyl)(methyl)amino)-2-(4-fluorophenyl)quinazolin-4(3H)-one] as the molecule, how does the EC50 read?
A: ≤ 10 µM

Q: With `COc1ccc2c(=O)n(NCc3ccc(F)cc3F)c(-c3ccc(F)cc3)nc2c1` [Example 34, 3-(2,4-difluorobenzylamino)-2-(4-fluorophenyl)-7-methoxy quinazolin-4(3H)-one] as the molecule, how does the EC50 read?
A: > 10 µM

Q: With `COc1ccc(-c2nc3ccccc3c(=O)n2NCc2ccc(Cl)cc2)cc1OC` [Example 62, 3-(4-chlorobenzylamino)-2-(3,4-dimethoxyphenyl)quinazolin-4(3H)-one] as the molecule, how does the EC50 read?
A: > 10 µM

Q: With `COc1cc(OC)cc(-c2nc3ccccc3c(=O)n2NCc2ccc(Cl)cc2)c1` [Example 59, 3-(4-chlorobenzylamino)-2-(3,5-dimethoxyphenyl)quinazolin-4(3H)-one] as the molecule, how does the EC50 read?
A: ≤ 10 µM

Q: With `O=c1c2ccc(O)cc2nc(-c2ccc(F)cc2)n1NCc1ccc(Br)cc1` [Example 95, 3-(4-bromobenzylamino)-2-(4-fluorophenyl)-7-hydroxy quinazolin-4(3H)-one] as the molecule, how does the EC50 read?
A: ≤ 10 µM

Q: With `COc1ccc(-c2nc3ccccc3c(=O)n2NCc2ccc(Br)cc2)cc1O` [Example 118, 3-(4-bromobenzylamino)-2-(3-hydroxy-4-methoxyphenyl)quinazolin-4(3H)-one] as the molecule, how does the EC50 read?
A: ≤ 10 µM

Q: Which EC50 does the source give for `O=c1c2ccccc2nc(-c2ccccc2C(F)(F)F)n1NCc1ccc(Br)cc1` [Example 8, 3-(4-bromobenzylamino)-2-(2(trifluoromethyl)phenyl)quinazolin-4(3H)-one] here?
A: ≤ 10 µM

Q: Which EC50 does the source give for `O=c1c2ccccc2nc(-c2ccc(Cl)cc2)n1NCc1ccc(F)c(F)c1` [Example 53, 2-(4-chlorophenyl)-3-(3,4-difluorobenzylamino)quinazolin-4(3H)-one] here?
A: ≤ 10 µM

Q: Which EC50 does the source give for `O=c1c2ccccc2nc(-c2ccc(O)cc2)n1NCc1ccc(Br)cc1` [Example 97, 3-(4-bromobenzylamino)-2-(4-hydroxyphenyl)quinazolin-4(3H)-one] here?
A: ≤ 10 µM

Q: For `O=c1c2ccccc2nc(-c2cccc(OC(F)(F)F)c2)n1NCc1ccc(Cl)cc1` [Example 61, 3-(4-chlorobenzylamino)-2-(3-(trifluoromethoxy)phenyl)quinazolin-4(3H)-one], which EC50 is on record?
A: ≤ 10 µM

Q: With `O=c1c2ccccc2nc(-c2ccco2)n1NCc1ccc(Br)cc1` [Example 40, 3-(4-bromobenzylamino)-2-(furan-2-yl)quinazolin-4(3H)-one] as the molecule, how does the EC50 read?
A: ≤ 10 µM

Q: How did the EC50 turn out when `O=c1c2ccccc2nc(-c2cccc(F)c2)n1NCc1ccc(F)c(C(F)(F)F)c1` [Example 107, 3-(4-fluoro-3-(trifluoromethyl)benzylamino)-2-(3-fluorophenyl)quinazolin-4(3H)— one] was run?
A: ≤ 10 µM

Q: For `COc1ccc(-c2nc3ccccc3c(=O)n2NCc2ccc(Cl)cc2)cc1O` [Example 119, 3-(4-chlorobenzylamino)-2-(3-hydroxy-4-methoxyphenyl)quinazolin-4(3H)— one], which EC50 is on record?
A: ≤ 10 µM

Q: How did the EC50 turn out when `COc1ccc2c(=O)n(NCc3ccc(Cl)cc3)c(-c3ccc(F)cc3)nc2c1` [Example 35, 3-(4-chlorobenzylamino)-2-(4-fluorophenyl)-7-methoxyquinazolin-4(3H)-one] was run?
A: > 10 µM

Q: `O=c1c2ccccc2nc(-c2ccc3c(c2)OCO3)n1NCc1ccc(Cl)cc1` [Example 64, 2-(benzo[d][1,3]dioxol-5-yl)-3-(4-chlorobenzylamino)quinazolin-4(3H)-one] was tested. Which EC50 did it give?
A: ≤ 10 µM

Q: How did the EC50 turn out when `Cc1ccc2c(=O)n(NCc3ccc(Br)cc3)c(-c3ccc(F)cc3)nc2c1` [Example 81, 3-(4-bromobenzylamino)-2-(4-fluorophenyl)-7-methylquinazolin-4(3H)-one] was run?
A: ≤ 10 µM

Q: How did the EC50 turn out when `O=c1c2ccccc2nc(-c2cccc(F)c2)n1NCc1ccc(Br)cc1` [Example 105, 3-(4-bromobenzylamino)-2-(3-fluorophenyl)quinazolin-4(3H)-one] was run?
A: ≤ 10 µM

Q: Which EC50 does the source give for `COc1ccc2nc(-c3ccccc3F)n(NCc3ccc(F)cc3F)c(=O)c2c1` [Example 27, 3-(2,4-difluorobenzylamino)-2-(2-fluorophenyl)-6-methoxy quinazolin-4(3H)-one] here?
A: ≤ 10 µM

Q: `O=c1c2ccccc2nc(-c2ccccc2)n1NCc1ccccc1` [Example 6, 3-(benzylamino)-2-phenylquinazolin-4(3H)-one] was tested. Which EC50 did it give?
A: ≤ 10 µM

Q: `COc1ccc2nc(-c3ccccc3F)n(NCc3ccc(Br)cc3)c(=O)c2c1` [Example 26, 3-(4-bromobenzylamino)-2-(2-fluorophenyl)-6-methoxy quinazolin-4(3H)-one] was tested. Which EC50 did it give?
A: > 10 µM

Q: `O=c1c2ccccc2nc(-c2ccc(F)cc2)n1NCCc1cccc(Br)c1` [Example 84, 3-(3-bromophenethylamino)-2-(4-fluorophenyl)quinazolin-4(3H)-one] was tested. Which EC50 did it give?
A: > 10 µM

Q: Which EC50 does the source give for `O=c1c2ccccc2nc(-c2ccc(F)cc2)n1NCCc1ccc(Br)cc1` [Example 85, 3-(4-bromophenethylamino)-2-(4-fluorophenyl)quinazolin-4(3H)-one] here?
A: ≤ 10 µM

Q: `O=c1c2ccccc2nc(-c2cccc(OC(F)(F)F)c2)n1NCc1ccc(Br)cc1` [Example 60, 3-(4-bromobenzylamino)-2-(3-(trifluoromethoxy)phenyl)quinazolin-4(3H)-one] was tested. Which EC50 did it give?
A: ≤ 10 µM

Q: How did the EC50 turn out when `O=c1c2ccccc2nc(-c2ccccc2F)n1NCc1cccc(C(F)(F)F)c1` [Example 20, 2-(2-fluorophenyl)-3-(3-(trifluoromethyl)benzylamino)quinazolin-4(3H)-one] was run?
A: ≤ 10 µM

Q: Which EC50 does the source give for `CC(C)(C)c1ccc(CNn2c(-c3ccccc3F)nc3ccccc3c2=O)cc1` [Example 11, 3-(4-tert-butylbenzylamino)-2-(2-fluorophenyl)quinazolin-4(3H)-one] here?
A: > 10 µM

Q: Which EC50 does the source give for `O=C(O)c1ccc(CNn2c(-c3ccccc3F)nc3ccccc3c2=O)cc1` [Example 101, 4-((2-(2-fluorophenyl)-4-oxoquinazolin-3(4H)-ylamino)methyl)benzoic acid] here?
A: > 10 µM

Q: For `Cc1ccc(-c2nc3ccccc3c(=O)n2NCc2ccc(Cl)cc2)cc1Cl` [Example 110, 2-(3-chloro-4-methylphenyl)-3-(4-chlorobenzylamino)quinazolin-4(3H)-one], which EC50 is on record?
A: ≤ 10 µM

Q: Which EC50 does the source give for `CN(C)c1ccc(-c2nc3ccccc3c(=O)n2NCc2ccc(Cl)cc2)cc1` [Example 43, 3-(4-chlorobenzylamino)-2-(4-(dimethylamino)phenyl)quinazolin-4(3H)-one] here?
A: ≤ 10 µM

Q: For `O=c1c2ccccc2nc(-c2ccc(F)cc2)n1NCc1cc(C(F)(F)F)cc(C(F)(F)F)c1` [Example 91, 3-(3,5-bis(trifluoromethyl)benzylamino)-2-(4-fluorophenyl)quinazolin-4(3H)-one], which EC50 is on record?
A: ≤ 10 µM

Q: With `COc1cc(OC)cc(-c2nc3ccccc3c(=O)n2NCc2ccc(Br)cc2)c1` [Example 58, 3-(4-bromobenzylamino)-2-(3,5-dimethoxyphenyl)quinazolin-4(3H)-one] as the molecule, how does the EC50 read?
A: ≤ 10 µM

Q: `Cc1ccc2c(=O)n(NCc3ccc(Br)cc3)c(-c3ccccc3F)nc2c1` [Example 24, 3-(4-bromobenzylamino)-2-(2-fluorophenyl)-7-methylquinazolin-4(3H)-one] was tested. Which EC50 did it give?
A: ≤ 10 µM

Q: For `O=c1c2c(F)cccc2nc(-c2ccc(F)cc2)n1NCc1ccc(Br)cc1` [Example 112], which EC50 is on record?
A: ≤ 10 µM

Q: `O=c1c2ccccc2nc(-c2cccs2)n1NCc1ccc(Br)cc1` [Example 86, 3-(4-bromobenzylamino)-2-(thiophen-2-yl)quinazolin-4(3H)-one] was tested. Which EC50 did it give?
A: ≤ 10 µM

Q: How did the EC50 turn out when `O=c1c2cccc(O)c2nc(-c2ccc(F)cc2)n1NCc1ccc(Br)cc1` [Example 113, 3-(4-bromobenzylamino)-2-(4-fluorophenyl)-8-hydroxyquinazolin-4(3H)-one] was run?
A: ≤ 10 µM

Q: For `O=c1c2ccccc2nc(-c2cccc(Cl)c2)n1NCc1ccc(Cl)cc1` [Example 48, 3-(4-chlorobenzylamino)-2-(3-chlorophenyl)quinazolin-4(3H)-one], which EC50 is on record?
A: ≤ 10 µM

Q: `O=c1c2ccccc2nc(-c2ccccc2F)n1NCc1cc(F)cc(F)c1` [Example 13, 3-(3,5-difluorobenzylamino)-2-(2-fluorophenyl)quinazolin-4(3H)-one] was tested. Which EC50 did it give?
A: ≤ 10 µM
